Experimental data from US20090221522A1, “METHODS TO CORRECT GENE SET EXPRESSION PROFILES TO DRUG SENSITIVITY” (The Johns Hopkins University, priority 2008, published 2009).

Legend:
[1] = tested on: direct-patient pancreatic cancer xenografts; experiment: Xenograft treatment, relative tumor growth inhibition (TGI); format: in vivo, mice
Excerpt: Four- to six-week-old female athymic (nu/nu) mice were purchased from Harlan (Harlan Laboratories, Washington, D.C.). The research protocol was approved by the Johns Hopkins University Animal Use and Care Committee and animals were maintained in accordance to guidelines of the American Association of Laboratory Animal Care. Xenografts obtained from F1 mice were excised and cut into small ˜3×3×3 mm fragments and then implanted subcutaneously in a group of five to six mice for each patient, with two small fragments in each mouse (F2) as described above for the original carcinoma. Half of the rest of the carcinoma was cryopreserved in liquid nitrogen and the other half is processed for biological studies. When the carcinoma reached a size of 1,500 mm^3, they were excised, cut into ˜3×3×3 mm fragments, and transplanted to the final cohort of mice to be treated with the drugs (F3 and successive passages). Further details of the establishment of the direct-patient pancreatic cancer xenografts are described in Rubio-Viqueira B, Jimeno A, Cusatis G, et al. An In vivo Platform for Translational Drug Development in Pancreatic Cancer. Clin Cancer Res 2006 12:4652-61.
Gemcitabine (Eli Lilly, Indianapolis, Ind.) was dissolved in saline. In some embodiments, docetaxel (Sanofi-Aventis, Bridgewater, N.J.) was dissolved in 50% ethanol and 50% DMSO. In other embodiments, docetaxel (Sanofi-Aventis, Bridgewater, N.J.) was dissolved in ethanol/polysorbate 80 as a stock solution and diluted 10-fold in 5% glucose for in vivo studies. Temsirolimus (Wyeth Research, Colleville, Pa.) was dissolved in 10% ethanol, 10% pluronic, and 80% PBS. All drugs were freshly prepared and used at an injection volume of 0.2 mL/20 g body weight. Drug doses and treatment schedules were obtained from published studies.
Xenografts from this second mouse-to-mouse passage (F3) were allowed to grow to a size of ˜200 mm^3, at which time five-to-six mice were randomly assigned to control and treatment groups. […] For docetaxel treatment group, mice were treated with 20 mg/kg once a week via intraperitoneal injection. For temsirolimus treatment group, mice were treated with 20 mg/kg/day via intraperitoneal injection. Mice were treated for 21-28 days, monitored daily for signs of toxicity, and were weighed thrice a week. Tumor size was evaluated thrice a week by caliper measurements using the following formula: tumor volume=[length×width^2]/2 as reported by van de Vijver M J, He Y D, van't Veer L J, et al. A Gene-Expression Signature as a Predictor of Survival in Breast Cancer. N Engl J Med 2002 347:1999-2009.
(§1) Relative tumor growth index (TGI) was calculated as TGI=(Ti−T0/Ci−C0) if Ti>T0 (indicates tumor growth inhibition) and TGI=(Ti−T0) if Ti≦T0 (indicates tumor regression). T and C represent tumor size in the treated and control group at the last of experiment, respectively; T0 and C0 represent tumor size in the treated and control group at the start of treatment, respectively.

[2] = tested on: patient-derived xenografts refractory to gemcitabine; experiment: Pre-clinical second-line study in xenografts refractory to gemcitabine (TGI); format: in vivo, mice; conditions: for tumor volume change: second-line molecular mimicry choice (docetaxel)
Description: FIG. 11 illustrates a pre-clinical design.
FIG. 12 illustrates validation on the xenografts of FIG. 11 based on prediction according to the present invention. Four xenograft cases were used. […] A case is defined as a responder to the drug treatment if Tumor Growth Inhibition (TGI) is <20%. Negative TGI values indicate tumor regression.
as §1
Seven FDA approved anticancer agents (capecitabine, cisplatin, docetaxel, doxorubicin, etoposide, irinotecan and oxaliplatin) were used as potential second line of drugs for selection according to the present invention. The one-size-fits-all treatment was erlotinib, an FDA approved targeted therapy for advanced pancreatic cancer. See Moore M J, Goldstein D, Hamm J, et al. Erlotinib plus gemcitabine compared with gemcitabine alone in patients with advanced pancreatic cancer: a phase Ill trial of the National Cancer Institute of Canada Clinical Trials Group. J Clin Oncol 25:1960-06 2007. […] Xenograft models of these cases were randomly assigned to (i) control, (ii) erlotinib arm (one-size-fits-all second line treatment) and (iii) molecular mimicry arm (i.e., drug selection according to the present invention). For the molecular mimicry arm, the baseline gene expression profiles of these cases were connected the NCI reference panel using GS-CMAP, and one of the seven anticancer agents was assigned to the case based on comparing the GI50 among these drugs. Molecular mimicry predicted that JH033 and JH034 are sensitive to docetaxel, PANC185 is sensitive to irinotecan and PANC219 is sensitive to doxorubicin. These cases were treated with the molecular mimicry choice of drugs and tumor volumes were measured. At the end of the experiment, xenografts treated with molecular mimicry choice of drugs had higher tumor growth inhibition than their litter mates treated with erlotinib (FIGS. 12 and 13).

Structure (SMILES): CC(=O)O[C@@]12CO[C@@H]1C[C@H](O)[C@@]1(C)C(=O)[C@H](O)C3=C(C)[C@@H](OC(=O)[C@H](O)[C@@H](NC(=O)OC(C)(C)C)c4ccccc4)C[C@@](O)([C@@H](OC(=O)c4ccccc4)[C@H]21)C3(C)C [docetaxel]
- xenograft response (sensitive/resistant) ([1]; xenograft PANC185, docetaxel): resistant
- TGI ([1]; xenograft PANC185, docetaxel for 21 days): 83%
- xenograft response (sensitive/resistant) ([1]; xenograft PANC215, docetaxel): resistant
- TGI ([1]; xenograft PANC215, docetaxel for 21 days): 41%
- xenograft response (sensitive/resistant) ([1]; xenograft PANC265, docetaxel): sensitive
- TGI ([1]; xenograft PANC265, docetaxel for 21 days): −79%
- tumor volume change ([2]; xenograft JH033): Regression in tumor volume
- tumor volume change ([2]; xenograft JH034): Regression in tumor volume

Structure (SMILES): C#Cc1cccc(Nc2ncnc3cc(OCCOC)c(OCCOC)cc23)c1 [erlotinib]
- median TGI ([2]; four xenograft cases (PANC185, PANC219, JH033, JH034)): 33%
- mean TGI % ([2]; four xenograft cases, second-line arm): 30%
- responders (TGI <20%) ([2]; of four xenograft cases, second-line treatment): only one xenograft responded

Structure (SMILES): CO[C@H]1C[C@@H]2CC[C@@H](C)[C@@](O)(O2)C(=O)C(=O)N2CCCC[C@H]2C(=O)O[C@H]([C@H](C)C[C@@H]2CC[C@@H](OC(=O)C(C)(CO)CO)[C@H](OC)C2)CC(=O)[C@H](C)/C=C(\C)[C@@H](O)[C@@H](OC)C(=O)[C@H](C)C[C@H](C)/C=C/C=C/C=C/1C [temsirolimus]
- TGI ([1]; xenograft JH024, after temsirolimus treatment): 94%
- xenograft response (sensitive/resistant) ([1]; xenograft JH024, temsirolimus): resistant
- TGI ([1]; xenograft PANC219, after temsirolimus treatment): −23%
- xenograft response (sensitive/resistant) ([1]; xenograft PANC219, temsirolimus): sensitive
